Test results from patent US9034868B2 (priority 2008, dated 2015).
Entries after “also recorded” stand apart in the source; their conditions may differ.

How the values were obtained:
StxB [1] = type: cell-based
[2] = system: vesicular stomatitis virus G protein (VSVG); type: cell-based, human
125I-EGF = type: cell-based, human
CI-MPR = type: cell-based, human
StxB [3] = type: cell-based; conditions: 20 μM, 30 min, 37° C.
TGN46 = type: cell-based, human
CTxB = type: cell-based; conditions: 20 μM
StxB [4] = type: cell-based; conditions: 20 μM, 45 min at 37° C.
StxB [5] = type: cell-based, human
StxB [6] = type: cell-based, human; remark: listed apart in the source
transferrin (Tf) = type: cell-based; conditions: 20 μM, 30 min, 37° C.

CCC(=O)N1CC(=O)Nc2ccc(Br)cc2C1c1ccccc1 (stereo not drawn) [Compound 193, 7-bromo-5-phenyl-4-propionyl-4,5-dihydro-1H-benzo[e][1,4]diazepin-2(3H)-one]
reduction of retrograde transport of STxB to the TGN (StxB [1]): 90% | reduction of transport of StxB to the TGN, 4 h after internalization (StxB [1]): 50% | anterograde transport of GFP-VSVGts045 [2]: not significantly reduced | effect on lysosomal degradation of 125I-EGF (125I-EGF): no effect | steady-state localization of CI-MPR (CI-MPR): similar | endocytosis of StxB (StxB [3]): not altered | effect on protein biosynthesis (HeLa-cells): only minor | steady-state localization and transport of TGN46 (TGN46): similar; also recorded: not been observed a distinct inhibition; also recorded: did not observe a pronounced effect; also recorded: do not impact distinctly | inhibition of Stx cytotoxicity (Stx1 and Stx2): 100 fold | cellular localisation of CtxB (CTxB): accumulation | cellular localisation of STxB (StxB [4]): accumulation | apparent side effects (THP1-cells): did not cause any apparent side effects | amount of bound StxB on cells (StxB [5]): not reduced | retrograde transport of StxB to the TGN (StxB [6]): stark reduction | endocytosis of transferrin (Tf) (transferrin (Tf)): not altered
